From ChEMBL document CHEMBL1909046, “DrugMatrix in vitro pharmacology data”

What was measured:
Cytochrome P450 3A4 = Cytochrome P450 3A4 (Homo sapiens, UniProt P08684)
Glucocorticoid receptor = biological target: T1, Glucocorticoid receptor (Homo sapiens, UniProt P04150); assay: biochemical
T1 sequence (P04150 whole entry): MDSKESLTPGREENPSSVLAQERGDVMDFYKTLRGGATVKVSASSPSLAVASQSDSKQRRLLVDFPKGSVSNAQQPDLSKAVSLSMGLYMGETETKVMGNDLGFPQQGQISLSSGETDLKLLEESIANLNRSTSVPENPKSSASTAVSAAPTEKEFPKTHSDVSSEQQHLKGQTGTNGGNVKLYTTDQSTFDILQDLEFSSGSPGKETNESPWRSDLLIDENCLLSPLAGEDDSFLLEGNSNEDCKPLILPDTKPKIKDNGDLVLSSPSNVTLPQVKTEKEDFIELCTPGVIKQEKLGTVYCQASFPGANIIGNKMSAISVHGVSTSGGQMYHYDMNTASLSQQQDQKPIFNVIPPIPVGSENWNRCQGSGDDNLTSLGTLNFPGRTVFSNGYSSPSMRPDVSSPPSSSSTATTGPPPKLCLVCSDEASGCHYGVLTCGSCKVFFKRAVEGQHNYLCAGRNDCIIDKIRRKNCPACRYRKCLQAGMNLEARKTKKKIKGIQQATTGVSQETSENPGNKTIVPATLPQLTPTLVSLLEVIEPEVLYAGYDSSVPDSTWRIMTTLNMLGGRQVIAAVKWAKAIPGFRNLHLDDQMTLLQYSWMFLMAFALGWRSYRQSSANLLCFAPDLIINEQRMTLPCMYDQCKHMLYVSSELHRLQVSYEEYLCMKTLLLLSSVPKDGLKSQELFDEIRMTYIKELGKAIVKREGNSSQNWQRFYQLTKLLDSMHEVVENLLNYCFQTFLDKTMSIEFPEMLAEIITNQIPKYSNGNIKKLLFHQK

Sequence of Cytochrome P450 3A4 (P08684 whole entry): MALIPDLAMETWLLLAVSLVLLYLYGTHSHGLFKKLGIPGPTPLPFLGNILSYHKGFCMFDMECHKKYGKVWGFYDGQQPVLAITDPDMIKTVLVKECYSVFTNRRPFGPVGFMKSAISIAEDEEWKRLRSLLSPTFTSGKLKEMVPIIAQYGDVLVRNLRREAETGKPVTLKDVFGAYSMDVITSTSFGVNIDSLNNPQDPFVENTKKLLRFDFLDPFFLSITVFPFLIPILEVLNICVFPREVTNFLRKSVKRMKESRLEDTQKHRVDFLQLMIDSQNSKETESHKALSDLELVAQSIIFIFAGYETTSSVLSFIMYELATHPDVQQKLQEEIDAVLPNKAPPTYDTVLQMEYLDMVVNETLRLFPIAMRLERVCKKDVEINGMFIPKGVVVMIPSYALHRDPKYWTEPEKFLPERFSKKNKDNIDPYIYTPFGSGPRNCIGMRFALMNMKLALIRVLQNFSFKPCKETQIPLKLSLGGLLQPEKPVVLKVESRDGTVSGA

Compound	IC50 (Cytochrome P450 3A4)	IC50 (Glucocorticoid receptor)	Ki (Glucocorticoid receptor)
CC(C)[C@H]1C(=O)N2CCC[C@H]2[C@]2(O)O[C@](NC(=O)[C@@H]3C=C4c5cccc6[nH]cc(c56)C[C@H]4N(C)C3)(C(C)C)C(=O)N12 [ERGOCORNINE]	0.5 µM	–	–
C[C@]12CCC(=O)C=C1CC[C@@H]1[C@@H]2CC[C@@]2(C)[C@H]1CC[C@]2(C)O [METHYLTESTOSTERONE]	–	1.84 µM	0.838 µM
